These results are taken from ChEMBL document CHEMBL5696443 (Clin Cancer Res, 2016).

Data set [1] relates to EML4-ALK (Homo sapiens), Q9UM73+Q9HC35 [L1196M]. The note with it: BaF3, dose 1000.0 nmol/L, time 3-5 weeks.
In data set [2] the test system is EML4-ALK (Homo sapiens), Q9UM73+Q9HC35 [L1198F]. The note with it: BaF3, dose 1000.0 nmol/L, time 3-5 weeks.
Data set [3] deals with EML4-ALK (Homo sapiens), Q9UM73+Q9HC35 [L1152P]. The note with it: BaF3, time 3-5 weeks.
The test system of data set [4] is BaF3. Briefly: Antitumor activity against mouse BaF3 cells expressing native EML4-ALK implanted in mouse assessed as tumor growth inhibition at 50 mg/kg, po administered once daily and measured after 8 days relative to control. The data set is classed as functional. Particulars: BaF3, 192 h, time 8 day, read-out: TGI.
The test system of data set [5] is EML4-ALK (Homo sapiens), Q9UM73+Q9HC35 [G1202R]. Particulars: BaF3, dose 1000.0 nmol/L, time 3-5 weeks.
The test system of data set [6] is BaF3. Briefly: animal or person. The note with it: Mus musculus, BaF3, po, 192 h, read-out: TGI.
The subject of data set [7] is EML4-ALK (Homo sapiens), Q9UM73+Q9HC35 [L1152R]. The note with it: BaF3, dose 1000.0 nmol/L, time 3-5 weeks.
In data set [8] the test system is EML4-ALK (Homo sapiens), Q9UM73+Q9HC35 [F1174L]. Particulars: BaF3, dose 1000.0 nmol/L, time 3-5 weeks.
The subject of data set [9] is EML4-ALK (Homo sapiens), Q9UM73+Q9HC35 [I1171N]. The note with it: BaF3, dose 1000.0 nmol/L, time 3-5 weeks.
The test system of data set [10] is EML4-ALK (Homo sapiens), Q9UM73+Q9HC35 [S1206Y]. Particulars: BaF3, time 3-5 weeks.
A short description of data set [11]: Protein binding in human plasma at 750 mg, administered once a day. Format: ADME, cell-free. Particulars: read-out: PPB (converted).
The test system of data set [12] is EML4-ALK (Homo sapiens), Q9UM73+Q9HC35 [UNDEFINED MUTATION]. The note with it: BaF3, dose 1000.0 nmol/L, time 3-5 weeks.
For data set [13], the system named is EML4-ALK (Homo sapiens), Q9UM73+Q9HC35 [G1202R]. The note with it: BaF3, time 3-5 weeks.
The test system of data set [14] is EML4-ALK (Homo sapiens), Q9UM73+Q9HC35 [C1156Y]. Particulars: BaF3, dose 1000.0 nmol/L, time 3-5 weeks.
For data set [15], the system named is EML4-ALK (Homo sapiens), Q9UM73+Q9HC35 [G1269A]. The note with it: BaF3, dose 1000.0 nmol/L, time 3-5 weeks.
The test system of data set [16] is EML4-ALK (Homo sapiens), Q9UM73+Q9HC35 [S1206F]. Particulars: BaF3, time 3-5 weeks.
Data set [17] is described as follows: Protein binding in human plasma assessed as unbound fraction at 750 mg, administered once a day. Format: ADME, cell-free.
The subject of data set [18] is EML4-ALK (Homo sapiens), Q9UM73+Q9HC35 [D1203N]. The note with it: BaF3, dose 1000.0 nmol/L, time 3-5 weeks.
The test system of data set [19] is EML4-ALK (Homo sapiens), Q9UM73+Q9HC35 [F1174C]. The note with it: BaF3, dose 200.0 nmol/L, time 3-5 weeks.
Data set [20] deals with EML4-ALK (Homo sapiens), Q9UM73+Q9HC35 [F1174I]. Particulars: BaF3, dose 200.0 nmol/L, time 3-5 weeks.
The subject of data set [21] is EML4-ALK (Homo sapiens), Q9UM73+Q9HC35 [S1206A]. The note with it: BaF3, dose 200.0 nmol/L, time 3-5 weeks.
Data set [22] concerns EML4-ALK (Homo sapiens), Q9UM73+Q9HC35 [S1206Y]. Particulars: BaF3, dose 1000.0 nmol/L, time 3-5 weeks.
Another data set is described as follows: in vitro. The note with it: mouse, BaF3 cells.
Data set [23] has as its system EML4-ALK (Homo sapiens), Q9UM73+Q9HC35 [L1198F]. The note with it: BaF3, dose 200.0 nmol/L, time 3-5 weeks.
Data set [24] has the same test system. Particulars: BaF3, dose 500.0 nmol/L, time 3-5 weeks.
In data set [25] the test system is EML4-ALK (Homo sapiens), Q9UM73+Q9HC35 [F1174C]. The note with it: BaF3, dose 1000.0 nmol/L, time 3-5 weeks.
The test system is the same in data set [26]. Particulars: BaF3, time 3-5 weeks.
Data set [27] has as its system EML4-ALK (Homo sapiens), Q9UM73+Q9HC35 [V1180L]. The note with it: BaF3, dose 1000.0 nmol/L, time 3-5 weeks.
The subject of data set [28] is EML4-ALK (Homo sapiens), Q9UM73+Q9HC35 [L1198F]. The note with it: BaF3, time 3-5 weeks.
Data set [29] relates to EML4-ALK (Homo sapiens), Q9UM73+Q9HC35 [L1152R]. Particulars: BaF3, time 3-5 weeks.
The subject of data set [30] is EML4-ALK (Homo sapiens), Q9UM73+Q9HC35 [F1174V]. Particulars: BaF3, dose 200.0 nmol/L, time 3-5 weeks.
Data set [31] relates to EML4-ALK (Homo sapiens), Q9UM73+Q9HC35 [L1152P]. Particulars: BaF3, dose 1000.0 nmol/L, time 3-5 weeks.
The subject of data set [32] is EML4-ALK (Homo sapiens), Q9UM73+Q9HC35 [F1174V]. The note with it: BaF3, dose 1000.0 nmol/L, time 3-5 weeks.
Data set [33] concerns EML4-ALK (Homo sapiens), Q9UM73+Q9HC35 [S1206F]. The note with it: BaF3, dose 1000.0 nmol/L, time 3-5 weeks.
A short description of data set [34]: Toxicity in CB-17/SCID mouse implanted with ALK positive mouse BaF3 cells expressing EML4-ALK G1202R mutant assessed as effect on body weight at 50 mg/kg, po administered once daily and measured after 6 days. Particulars: in vivo, 144 h, time 6 day. Format: organism-based.
Data set [35] deals with EML4-ALK (Homo sapiens), Q9UM73+Q9HC35 [E1210K]. Particulars: BaF3, dose 1000.0 nmol/L, time 3-5 weeks.
The test system of data set [36] is BaF3. Put plainly: animal or person. Particulars: Mus musculus, BaF3, po, 192 h, read-out: TGI. The source holds these as a separate data set.
The subject of data set [37] is BaF3. Briefly: Antitumor activity against mouse BaF3 cells expressing native EML4-ALK implanted in mouse assessed as tumor regression at 60 mg/kg, po administered once daily and measured after 8 days relative to control. The data set is classed as functional. Particulars: time 8 day.
Data set [38] is described as follows: Average plasma concentration in CB-17/SCID mouse implanted with mouse BaF3 cells expressing EML4-ALK G1202R mutant at 60 mg/kg, po administered once daily for 7 days by LC-MS/MS analysis. Format: ADME, organism-based. The note with it: in vivo, 168 h, time 7 day.
Data set [39] is described as follows: Protein binding in human plasma assessed as unbound fraction at 600 mg, administered twice a day. The data set is classed as ADME, cell-free.
Data set [40] can be described thus: Toxicity in CB-17/SCID mouse implanted with ALK positive mouse BaF3 cells expressing EML4-ALK G1202R mutant assessed as effect on body weight at 60 mg/kg, po administered once daily and measured after 6 days. The note with it: in vivo, 144 h, time 6 day. The data set is classed as organism-based.
A short description of data set [41]: Protein binding in human plasma at 600 mg, administered twice a day. The data set is classed as ADME, cell-free. Particulars: read-out: PPB (converted).

Calls of active or inactive are those of the source. No cut-off for these calls is given here.

Consider `Cc1cc(Nc2ncc(Cl)c(Nc3ccccc3S(=O)(=O)C(C)C)n2)c(OC(C)C)cc1C1CCNCC1` [CERITINIB], for which the inhibition entry in data set [1], in [2], in [5], in data set [7], in data set [8] and in data set [9] was “Active” each time. Further, the inhibition entry in [12], in [14], in data set [15], in data set [18], in [22] and in [25] was “Active” each time. In addition, the inhibition entry in data set [27], in data set [31], in data set [32], in [33] and in data set [35] was “Active” each time. For the same compound, the IC90 stood at 1230 nM in [3]; 99 nM in data set [10]; 1040 nM in [13]; 99 nM in data set [16]; 2840 nM in the data set “in vitro”; 229 nM in [26]. Moreover, the IC90 came out at 1320 nM in [28] and 1270 nM in data set [29]. Moreover, the inhibition in vivo at 50 mg/kg in the data set with BaF3 [4] came out at 97%; in the data set on BaF3 [6], 14%. In addition, the fraction unbound in [11] and in data set [17] was 0.028 throughout. The inhibition entry in [19], in data set [20], in data set [21], in data set [23], in [24] and in data set [30] was “inactive” each time. In the data set “in vitro”, this compound displayed an IC50 of 1670 nM. For the same compound, the Activity entry in data set [34] is reported as “Non-Toxic”.

In the case of `CCc1cc2c(cc1N1CCC(N3CCOCC3)CC1)C(C)(C)c1[nH]c3cc(C#N)ccc3c1C2=O` [ALECTINIB], the inhibition in vivo at 60 mg/kg in the data set on BaF3 [36] was found to be 0%. Further, the Activity was 95% in the data set on BaF3 [37] and “Non-Toxic” in data set [40]. The same compound had a Cave in data set [38] of 8.817 µM. This compound showed a half-inhibitory concentration (IC50) in the data set “in vitro” of 2070 nM. Besides, the IC90 in “in vitro” amounted to 7460 nM. The fraction unbound in [39] and in data set [41] was 0.003 in each case.
